Measured values as given in patent US9156877B2, “17-hydroxy-17-pentafluorethyl-estra-4,9(10)-dien-11-benzylidene derivatives, methods for the production thereof and use thereof for treating diseases” (Bayer Intellectual Property GmbH, priority 2009, dated 2015).

Legend:
[1] = target: T1, human progesterone receptor A (Homo sapiens, UniProt P06401); assay: Progesterone receptor-antagonistic action in stably transfected SK-N-MC cells with MMTV-LUC reporter (PR-A); type: cell-based; conditions: antagonistic potency against 0.1 nmol/l promegestone, 24 hours, luciferase
T1 construct: expressed in transfected cells; host or cells: SK-N-MC human neuroblastoma cells, stably transfected with pRChPR-A-neo and pMMTV-LUC
T1 sequence (P06401 1-769 isoform P06401-2): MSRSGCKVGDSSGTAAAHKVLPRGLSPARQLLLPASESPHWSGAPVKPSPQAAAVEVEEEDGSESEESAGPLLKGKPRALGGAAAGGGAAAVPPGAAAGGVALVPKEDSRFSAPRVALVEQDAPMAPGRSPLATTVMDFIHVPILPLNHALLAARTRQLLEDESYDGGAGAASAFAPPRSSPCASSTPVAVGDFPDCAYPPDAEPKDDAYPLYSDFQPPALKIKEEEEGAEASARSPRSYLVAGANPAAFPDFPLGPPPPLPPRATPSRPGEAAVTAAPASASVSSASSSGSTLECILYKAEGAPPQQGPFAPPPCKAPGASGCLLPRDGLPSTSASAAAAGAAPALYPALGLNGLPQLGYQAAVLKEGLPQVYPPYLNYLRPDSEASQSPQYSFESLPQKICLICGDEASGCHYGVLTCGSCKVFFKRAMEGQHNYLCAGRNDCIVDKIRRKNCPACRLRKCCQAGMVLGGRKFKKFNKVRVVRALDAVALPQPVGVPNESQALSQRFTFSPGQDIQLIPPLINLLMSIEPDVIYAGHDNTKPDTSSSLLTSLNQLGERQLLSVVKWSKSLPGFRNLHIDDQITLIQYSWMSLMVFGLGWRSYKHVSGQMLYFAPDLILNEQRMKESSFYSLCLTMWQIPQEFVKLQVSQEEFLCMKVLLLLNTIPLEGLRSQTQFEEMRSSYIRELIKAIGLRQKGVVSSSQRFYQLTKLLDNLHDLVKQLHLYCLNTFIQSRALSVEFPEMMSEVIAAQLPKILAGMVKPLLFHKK
Procedure: (§1) Determination of Progesterone Receptor-Antagonistic Action in Stable Transfectants of Human Neuroblastoma Cells (SK-N-MC Cells) with the Human Progesterone A or Progesterone B Receptor and an MN-LUC Reporter Construct
(§2) SK-N-MC cells (human neuroblastoma cells) which have been stably transfected with plasmids expressing the human progesterone receptor B (pRChPR-B-neo) or the human progesterone receptor A (pRChPR-A-neo) and a reporter construct (pMMTV-LUC) were incubated for 24 hours either in the absence (negative control) or in the presence of ascending amounts of the particular test compound (0.01 nmol/l, 0.1 nmol/l, 1 nmol/l, 10 nmol/l, 100 nmol/l and […]), in order to determine the agonistic efficacy. As a positive control of the reporter gene induction, the cells were treated with the synthetic gestagen promegestone (0.01 nmol/l, 0.1 nmol/l, 1 nmol/l, 10 nmol/l, 100 nmol/l and […]). To determine the antagonistic activity, the cells were treated with 0.1 nmol/l promegestone and additionally with ascending amounts of the particular test compound (0.01 nmol/l, 0.1 nmol/l, 1 nmol/l, 10 nmol/l, 100 nmol/l and […]). The activity of the reporter gene LUC (LUC=luciferase) was determined in the cell lysates and measured as RLU (relative light units). All measurements are reported as % efficacy and as EC50 and IC50 concentrations.

[2] = target: T2, human progesterone receptor B (Homo sapiens, UniProt P06401); assay: Progesterone receptor-antagonistic action in stably transfected SK-N-MC cells with MMTV-LUC reporter (PR-B); type: cell-based; conditions: antagonistic potency against 0.1 nmol/l promegestone, 24 hours, luciferase
T2 construct: expressed in transfected cells; host or cells: SK-N-MC human neuroblastoma cells, stably transfected with pRChPR-B-neo and pMMTV-LUC
T2 sequence (P06401 1-933): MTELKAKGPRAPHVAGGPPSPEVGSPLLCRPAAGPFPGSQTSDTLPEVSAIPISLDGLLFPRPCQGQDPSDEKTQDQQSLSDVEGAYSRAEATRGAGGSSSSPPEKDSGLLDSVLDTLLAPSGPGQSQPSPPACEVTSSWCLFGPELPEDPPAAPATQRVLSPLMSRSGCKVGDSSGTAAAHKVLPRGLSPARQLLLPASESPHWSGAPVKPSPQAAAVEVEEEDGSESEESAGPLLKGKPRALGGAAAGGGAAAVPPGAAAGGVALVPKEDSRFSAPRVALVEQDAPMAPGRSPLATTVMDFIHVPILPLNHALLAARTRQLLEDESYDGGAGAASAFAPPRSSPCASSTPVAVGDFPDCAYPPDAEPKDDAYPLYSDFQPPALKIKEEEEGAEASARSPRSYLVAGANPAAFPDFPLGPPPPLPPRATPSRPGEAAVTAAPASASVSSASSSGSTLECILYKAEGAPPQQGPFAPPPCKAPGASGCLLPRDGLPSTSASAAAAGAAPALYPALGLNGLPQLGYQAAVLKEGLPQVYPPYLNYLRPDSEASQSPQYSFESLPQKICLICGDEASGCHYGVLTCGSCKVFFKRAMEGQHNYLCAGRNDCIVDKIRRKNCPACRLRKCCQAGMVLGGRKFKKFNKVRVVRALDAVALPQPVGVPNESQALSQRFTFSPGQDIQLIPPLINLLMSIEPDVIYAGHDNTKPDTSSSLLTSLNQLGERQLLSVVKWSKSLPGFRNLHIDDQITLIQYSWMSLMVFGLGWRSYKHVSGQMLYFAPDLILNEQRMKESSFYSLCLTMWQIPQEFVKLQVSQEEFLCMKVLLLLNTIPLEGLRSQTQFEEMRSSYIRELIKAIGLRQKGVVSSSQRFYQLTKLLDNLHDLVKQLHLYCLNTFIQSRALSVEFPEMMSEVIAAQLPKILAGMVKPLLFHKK
Procedure: as §1, §2

SMILES | IC50 [1] [nM] | IC50 [2] [nM]
C[C@]12C[C@H](c3ccc(/C=C/c4ccc(S(C)(=O)=O)cc4)cc3)C3=C4CCC(=O)C=C4CC[C@H]3[C@@H]1CC[C@@]2(O)C(F)(F)C(F)(F)F [Example 32, (8S,11R,13S,14S,17S)-17-hydroxy-11-{4-[(E)-2-(4-methanesulphonylphenyl)vinyl]phenyl}-13-methyl-17-pentafluoroethyl-1,2,6,7,8,11,12,13,14,15,16,17-dodecahydrocyclopenta[a]phenanthren-3-one] | 0.01 | 0.01
C[C@]12C[C@H](c3ccc(/C=C/CNC(=O)NCCC(=O)O)cc3)C3=C4CCC(=O)C=C4CCC3C1CC[C@@]2(O)C(F)(F)C(F)(F)F (stereo partly drawn) [Example 50, (3-{(E)-3-[4-((8S,11R,13S,14S,17S)-17-hydroxy-13-methyl-3-oxo-17-pentafluoroethyl-2,3,6,7,8,11,12,13,14,15,16,17-dodecahydro-1H-cyclopenta[a]phenanthren-11-yl)phenyl]allyl}ureido)propionic acid] | 8 | 3
CSc1ccc(/C=C/c2ccc([C@H]3C[C@@]4(C)[C@@H](CC[C@@]4(O)C(F)(F)C(F)(F)F)[C@@H]4CCC5=CC(=O)CCC5=C43)cc2)cc1 [Example 33, (8S,11R,13S,14S,17S)-17-hydroxy-13-methyl-11-{4-[(E)-2-(4-methylsulphanylphenyl)vinyl]phenyl}-17-pentafluoroethyl-1,2,6,7,8,11,12,13,14,15,16,17-dodecahydrocyclopenta[a]phenanthren-3-one] | 0.1 | 0.8
CC(C)CO/N=C/c1ccc([C@H]2C[C@@]3(C)[C@@H](CC[C@@]3(O)C(F)(F)C(F)(F)F)[C@@H]3CCC4=CC(=O)CCC4=C32)cc1 [Example 38, 4-((8S,11R,13S,14S,17S)-17-hydroxy-13-methyl-3-oxo-17-pentafluoroethyl-2,3,6,7,8,11,12,13,14,15,16,17-dodecahydro-1H-cyclopenta[a]phenanthren-11-yl)benzaldehyde O-isobutyl oxime] | 0.09 | 0.1
C[C@]12C[C@H](c3ccc(/C=C/CNC(=O)Nc4ccc(Cl)cc4)cc3)C3=C4CCC(=O)C=C4CC[C@H]3[C@@H]1CC[C@@]2(O)C(F)(F)C(F)(F)F [Example 53, 1-(4-chlorophenyl)-3-{(E)-3-[4-((8S,11R,13S,14S,17S)-17-hydroxy-13-methyl-3-oxo-17-pentafluoroethyl-2,3,6,7,8,11,12,13,14,15,16,17-dodecahydro-1H-cyclopenta[a]phenanthren-11-yl)phenyl]allyl}urea] | 0.1 | 0.2
C=Cc1cccc([C@H]2C[C@@]3(C)[C@@H](CC[C@@]3(O)C(F)(F)C(F)(F)F)[C@@H]3CCC4=CC(=O)CCC4=C32)c1 [Example 19, (8S,11R,13S,14S,17S)-17-hydroxy-13-methyl-17-pentafluoroethyl-11-(3-vinylphenyl)-1,2,6,7,8,11,12,13,14,15,16,17-dodecahydrocyclopenta[a]phenanthren-3-one] | 3 | 3
C[C@]12C[C@H](c3ccc(/C=C/CNC(=O)Nc4ccc(C(=O)O)cc4)cc3)C3=C4CCC(=O)C=C4CC[C@H]3[C@@H]1CC[C@@]2(O)C(F)(F)C(F)(F)F [Example 56, 4-(3-{(E)-3-[4-((8S,11R,13S,14S,17S)-17-hydroxy-13-methyl-3-oxo-17-pentafluoroethyl-2,3,6,7,8,11,12,13,14,15,16,17-dodecahydro-1H-cyclopenta[a]phenanthren-11-yl)phenyl]allyl}ureido)benzoic acid] | 0.9 | 1.9
CC(C)(C)NC(=O)NC/C=C/c1ccc([C@H]2C[C@@]3(C)C(CC[C@@]3(O)C(F)(F)C(F)(F)F)C3CCC4=CC(=O)CCC4=C32)cc1 (some centres unmarked) [Example 41] | 0.1 | 0.1
COC(=O)c1ccc(/C=C/c2ccc([C@H]3C[C@@]4(C)[C@@H](CC[C@@]4(O)C(F)(F)C(F)(F)F)[C@@H]4CCC5=CC(=O)CCC5=C43)cc2)cc1 [Example 31, 4-{(E)-2-[4-((8S,11R,13S,14S,17S)-17-hydroxy-13-methyl-3-oxo-17-pentafluoroethyl-2,3,6,7,8,11,12,13,14,15,16,17-dodecahydro-1H-cyclopenta[a]phenanthren-11-yl)phenyl]vinyl}benzoic acid methyl ester] | 0.09 | 0.1
CCOC(=O)CCNC(=O)NC/C=C/c1ccc([C@H]2C[C@@]3(C)C(CC[C@@]3(O)C(F)(F)C(F)(F)F)C3CCC4=CC(=O)CCC4=C32)cc1 (stereo partly drawn) [Example 49, (3-{(E)-3-[4-((8S,11R,13S,14S,17S)-17-hydroxy-13-methyl-3-oxo-17-pentafluoroethyl-2,3,6,7,8,11,12,13,14,15,16,17-dodecahydro-1H-cyclopenta[a]phenanthren-11-yl)phenyl]allyl}ureido)propionic acid ethyl ester] | 0.1 | 0.3
CCOC(=O)c1ccc(NC(=O)NC/C=C/c2ccc([C@H]3C[C@@]4(C)[C@@H](CC[C@@]4(O)C(F)(F)C(F)(F)F)[C@@H]4CCC5=CC(=O)CCC5=C43)cc2)cc1 [Example 55, 4-(3-{(E)-3-[4-((8S,11R,13S,14S,17S)-17-hydroxy-13-methyl-3-oxo-17-pentafluoroethyl-2,3,6,7,8,11,12,13,14,15,16,17-dodecahydro-1H-cyclopenta[a]phenanthren-11-yl)phenyl]allyl}ureido)benzoic acid ethyl ester] | 0.1 | 0.09
C[C@]12C[C@H](c3ccc(/C=C/CNC(=O)Nc4ccc(F)cc4)cc3)C3=C4CCC(=O)C=C4CC[C@H]3[C@@H]1CC[C@@]2(O)C(F)(F)C(F)(F)F [Example 44, 1-(4-fluorophenyl)-3-{(E)-3-[4-((8S,11R,13S,14S,17S)-17-hydroxy-13-methyl-3-oxo-17-pentafluoroethyl-2,3,6,7,8,11,12,13,14,15,16,17-dodecahydro-1H-cyclopenta[a]phenanthren-11-yl)phenyl]allyl}urea] | 0.1 | 0.1
COC(=O)c1cccc(/C=C/c2ccc([C@H]3C[C@@]4(C)[C@@H](CC[C@@]4(O)C(F)(F)C(F)(F)F)[C@@H]4CCC5=CC(=O)CCC5=C43)cc2)c1 [Example 30, 3-{(E)-2-[4-((8S,11R,13S,14S,17S)-17-hydroxy-13-methyl-3-oxo-17-pentafluoroethyl-2,3,6,7,8,11,12,13,14,15,16,17-dodecahydro-1H-cyclopenta[a]phenanthren-11-yl)phenyl]vinyl}benzoic acid methyl ester] | 0.09 | 0.08
